Test results published in PMC8397297 (ACS Chemical Neuroscience, 2021).

Key:
mGAT4 = molecular target: T1, mGAT4 (Mus musculus, UniProt P31650); assay: [3H]GABA uptake assay in HEK-293 cells stably expressing mGAT4; assay type: cell-based; settings: for IC50: [3H]GABA uptake, read-out: pIC50 ± SEM mGAT4 (converted); for remaining [3H]GABA uptake mGAT4: in the presence of 100 μM inhibitor
T1 construct: expressed in transfected cells; host or cells: HEK-293
T1 sequence (P31650 1-627): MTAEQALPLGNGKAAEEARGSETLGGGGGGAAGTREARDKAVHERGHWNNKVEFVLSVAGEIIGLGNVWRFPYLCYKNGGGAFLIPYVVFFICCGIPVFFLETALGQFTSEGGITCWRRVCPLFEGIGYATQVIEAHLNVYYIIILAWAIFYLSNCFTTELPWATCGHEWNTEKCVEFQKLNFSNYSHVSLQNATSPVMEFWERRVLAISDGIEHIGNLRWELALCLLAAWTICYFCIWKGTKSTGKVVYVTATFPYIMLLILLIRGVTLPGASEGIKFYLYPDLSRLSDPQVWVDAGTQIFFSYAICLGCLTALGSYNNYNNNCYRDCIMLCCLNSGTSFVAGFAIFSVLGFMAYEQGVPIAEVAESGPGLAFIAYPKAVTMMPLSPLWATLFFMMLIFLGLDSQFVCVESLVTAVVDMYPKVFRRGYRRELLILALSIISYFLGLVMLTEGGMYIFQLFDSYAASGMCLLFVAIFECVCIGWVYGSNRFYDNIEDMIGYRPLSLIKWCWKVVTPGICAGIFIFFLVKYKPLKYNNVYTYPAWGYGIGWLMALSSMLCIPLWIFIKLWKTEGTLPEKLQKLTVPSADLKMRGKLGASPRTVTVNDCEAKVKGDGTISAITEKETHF

mGAT2 = molecular target: T2, mGAT2 (Mus musculus, UniProt P31651); assay: [3H]GABA uptake assay in HEK-293 cells stably expressing mGAT2; assay type: cell-based; settings: for IC50: [3H]GABA uptake, read-out: pIC50 ± SEM mGAT2 (converted); for remaining [3H]GABA uptake mGAT2: in the presence of 100 μM inhibitor
T2 construct: expressed in transfected cells; host or cells: HEK-293
T2 sequence (P31651 1-614): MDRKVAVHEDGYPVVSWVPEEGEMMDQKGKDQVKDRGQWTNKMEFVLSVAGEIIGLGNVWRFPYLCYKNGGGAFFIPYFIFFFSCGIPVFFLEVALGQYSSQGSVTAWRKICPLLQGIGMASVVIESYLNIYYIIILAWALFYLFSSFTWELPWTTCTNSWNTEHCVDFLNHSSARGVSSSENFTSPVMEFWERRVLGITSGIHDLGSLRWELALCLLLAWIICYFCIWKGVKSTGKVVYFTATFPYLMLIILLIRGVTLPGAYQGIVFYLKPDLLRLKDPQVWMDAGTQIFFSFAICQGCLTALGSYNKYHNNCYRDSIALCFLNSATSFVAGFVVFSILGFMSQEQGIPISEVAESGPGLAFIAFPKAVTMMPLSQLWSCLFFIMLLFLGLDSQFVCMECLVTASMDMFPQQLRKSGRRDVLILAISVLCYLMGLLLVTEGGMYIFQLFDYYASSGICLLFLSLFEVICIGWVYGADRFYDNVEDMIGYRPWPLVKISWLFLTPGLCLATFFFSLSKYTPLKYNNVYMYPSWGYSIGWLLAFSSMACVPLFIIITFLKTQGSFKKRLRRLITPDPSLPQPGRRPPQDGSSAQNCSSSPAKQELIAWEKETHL

mGAT1 [1] = molecular target: T3, mGAT1 (Mus musculus, UniProt P31648); assay: [3H]GABA uptake assay in HEK-293 cells stably expressing mGAT1; assay type: cell-based; settings: for IC50: [3H]GABA uptake, read-out: pIC50 ± SEM mGAT1 (converted); for remaining [3H]GABA uptake mGAT1: in the presence of 100 μM inhibitor
T3 construct: expressed in transfected cells; host or cells: HEK-293

mGAT3 = molecular target: T4, mGAT3 (Mus musculus, UniProt P31649); assay: [3H]GABA uptake assay in HEK-293 cells stably expressing mGAT3; assay type: cell-based; settings: [3H]GABA uptake; read-out: pIC50 ± SEM mGAT3 (converted)
T4 construct: expressed in transfected cells; host or cells: HEK-293
T4 sequence (P31649 1-602): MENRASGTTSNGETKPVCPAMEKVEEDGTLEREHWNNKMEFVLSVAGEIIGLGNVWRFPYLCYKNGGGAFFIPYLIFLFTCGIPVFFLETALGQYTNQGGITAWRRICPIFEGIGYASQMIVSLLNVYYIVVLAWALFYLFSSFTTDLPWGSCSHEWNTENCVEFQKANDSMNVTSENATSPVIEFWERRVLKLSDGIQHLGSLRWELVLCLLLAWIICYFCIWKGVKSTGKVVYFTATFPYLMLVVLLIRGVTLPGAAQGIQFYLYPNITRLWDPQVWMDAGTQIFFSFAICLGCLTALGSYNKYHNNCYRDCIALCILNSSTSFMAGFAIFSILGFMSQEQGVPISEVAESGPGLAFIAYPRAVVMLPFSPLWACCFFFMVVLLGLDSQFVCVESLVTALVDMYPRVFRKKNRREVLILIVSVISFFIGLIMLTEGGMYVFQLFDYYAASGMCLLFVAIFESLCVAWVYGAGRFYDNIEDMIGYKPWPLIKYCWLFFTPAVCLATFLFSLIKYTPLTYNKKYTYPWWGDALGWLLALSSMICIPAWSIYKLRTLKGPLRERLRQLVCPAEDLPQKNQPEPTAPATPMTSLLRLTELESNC

mGAT1 [2] = molecular target: T3, mGAT1; assay: competitive MS binding assay with NO711 as unlabeled marker (LC-ESI-MS/MS); settings: in the presence of 100 μM inhibitor
Method: Specific binding affinity toward mGAT1 was determined via a competitive mass spectrometry (MS) binding assay quantified by liquid chromatography–electrospray ionization tandem mass spectrometry (LC–ESI-MS/MS) with NO711 as an unlabeled marker.[50]
MS binding assays for mGAT1 were performed as described earlier.[50] Inhibition of mGAT1 binding by the synthesized compounds was determined in MS binding assays at a screening concentration of 100 μM and analyzed by LC–ESI-MS/MS.

Row | Structure (SMILES) | IC50 (mGAT4) [µM] | IC50 (mGAT2) [µM] | IC50 (mGAT1 [1]) [µM] | IC50 (mGAT3) [µM] | remaining NO711 binding mGAT1 (mGAT1 [2]) | remaining [3H]GABA uptake mGAT2 (mGAT2) | remaining [3H]GABA uptake mGAT1 (mGAT1 [1]) | remaining [3H]GABA uptake mGAT4 (mGAT4)
1 | Cc1ccsc1C(=C1CCN([C@H](C[C@@H](C)O)C(=O)NCc2ccccc2)CC1)c1sccc1C (relative stereo) [2RS,4RS-37a, N-Benzyl-2-{4-[bis(3-methylthiophen-2-yl)methylidene]piperidin-1-yl}-4-hydroxypentanamide] | 72.4 | 24.5 | 26.3 | 41.7 | 100 μM: 74% |  |  | 
2 | Cc1ccsc1C(=C1CCN([C@H](C[C@@H](C)O)C(=O)NCc2ccc(F)cc2)CC1)c1sccc1C (relative stereo) [2RS,4RS-37c, 2-{4-[Bis(3-methylthiophen-2-yl)methylidene]piperidin-1-yl}-N-[(4-fluorophenyl)methyl]-4-hydroxypentanamide] | 19.5 | 15.8 | 17.8 | 11.5 | 100 μM: 76% |  |  | 
3 | C[C@@H](O)C[C@H](C(=O)NCc1ccc(Cl)cc1)N(C)CCC=C1c2ccccc2CCc2ccccc21 (relative stereo) [2RS,4RS-39b, N-(4-Chlorobenzyl)-2-((3-(10,11-dihydro-5H-dibenzo[a,d][7]annulen-5-ylidene)propyl)(methyl)amino)-4-hydroxypentanamide] | 9.12 |  |  | 24 | 100 μM: 84% | 100 μM: 73% | 100 μM: 56% | 
4 | Cc1ccsc1C(=C1CCN([C@H](C[C@H](C)O)C(=O)NCc2ccccc2)CC1)c1sccc1C (relative stereo) [2RS,4SR-37a, N-Benzyl-2-{4-[bis(3-methylthiophen-2-yl)methylidene]piperidin-1-yl}-4-hydroxypentanamide] | 27.5 |  | 29.5 | 61.7 | 100 μM: 78% | 100 μM: 60% |  | 
5 | C[C@H](O)C[C@H](C(=O)NCc1ccc(Cl)cc1)N(C)CCC=C1c2ccccc2CCc2ccccc21 (relative stereo) [2RS,4SR-39b, N-(4-Chlorobenzyl)-2-((3-(10,11-dihydro-5H-dibenzo[a,d][7]annulen-5-ylidene)propyl)(methyl)amino)-4-hydroxypentanamide] | 9.12 |  |  | 10.2 | 100 μM: 87% | 100 μM: 73% | 100 μM: 51% | 
6 | Cc1ccc(CNC(=O)[C@@H](C[C@H](C)O)N(C)CCC=C2c3ccccc3CCc3ccccc32)cc1 (relative stereo) [2RS,4SR-39c, 2-((3-(10,11-Dihydro-5H-dibenzo[a,d][7]annulen-5-ylidene)propyl)(methyl)amino)-4-hydroxy-N-(4-methylbenzyl)pentanamide] | 6.92 | 8.13 |  | 7.94 | 100 μM: 73% |  | 100 μM: 51% | 
7 | Cc1ccsc1C(=C1CCN(C(CC(C)O)C(=O)NCc2ccccc2Cl)CC1)c1sccc1C (centres unmarked) [2RS,4RS-37b, 2-{4-[Bis(3-methylthiophen-2-yl)methylidene]piperidin-1-yl}-N-[(2-chlorophenyl)methyl]-4-hydroxypentanamide] | 61.7 |  |  | 93.3 | 100 μM: 94% | 100 μM: 58% | 100 μM: 52% | 
8 | CC(O)CC(C(=O)NCc1ccc(F)cc1)N(C)CCC=C1c2ccccc2CCc2ccccc21 (centres unmarked) [2RS,4RS-39a, 2-((3-(10,11-Dihydro-5H-dibenzo[a,d][7]annulen-5-ylidene)propyl)(methyl)amino)-N-(4-fluorobenzyl)-4-hydroxypentanamide] | 25.1 | 12.6 |  | 14.8 | 100 μM: 110% |  | 100 μM: 51% | 
9 | CC(O)CC(C(=O)NCc1ccccc1)N1CCC(=C2c3ccccc3-c3ccccc32)CC1 (centres unmarked) [2RS,4RS-41a, N-Benzyl-2-[4-(9H-fluoren-9-ylidene)piperidin-1-yl]-4-hydroxypentanamide] |  | 74.1 |  | 64.6 | 100 μM: 92% |  | 100 μM: 49% | 52%
10 | CC(O)CC(C(=O)NCc1ccccc1)N1CCC(=C2c3ccccc3CCc3ccccc32)CC1 (centres unmarked) [2RS,4RS-43a, N-Benzyl-2-(4-(10,11-dihydro-5H-dibenzo[a,d][7]annulen-5-ylidene)piperidin-1-yl)-4-hydroxypentanamide] | 26.3 | 56.2 | 17 | 21.4 | 100 μM: 77% |  |  | 
11 | CC(O)CC(C(=O)NCc1ccc(F)cc1)N1CCC(=C2c3ccccc3CCc3ccccc32)CC1 (centres unmarked) [2RS,4RS-43b, 2-(4-(10,11-Dihydro-5H-dibenzo[a,d][7]annulen-5-ylidene)piperidin-1-yl)-N-(4-fluorobenzyl)-4-hydroxypentanamide] | 47.9 |  | 70.8 | 38 | 100 μM: 86% | 100 μM: 59% |  | 
12 | CC(O)CC(C(=O)NCc1ccccc1)N(C)CCON=C(c1ccccc1)c1ccccc1 (centres unmarked) [2RS,4RS-45, N-Benzyl-2-[(2-{[(diphenylmethylidene)amino]oxy}ethyl)(methyl)amino]-4-hydroxypentanamide] | 28.2 | 45.7 | 43.7 ± 0.801 | 20 | 100 μM: 100% |  |  | 
13 | Cc1ccsc1C(=C1CCN(C(CC(C)O)C(=O)NCc2ccccc2Cl)CC1)c1sccc1C (centres unmarked) [2RS,4SR-37b, 2-{4-[Bis(3-methylthiophen-2-yl)methylidene]piperidin-1-yl}-N-[(2-chlorophenyl)methyl]-4-hydroxypentanamide] |  |  |  | 72.4 | 100 μM: 108% | 100 μM: 69% | 100 μM: 50% | 100 μM: 56%
14 | CC(O)CC(C(=O)NCc1ccccc1)N1CCC(=C2c3ccccc3-c3ccccc32)CC1 (centres unmarked) [2RS,4SR-41a, N-Benzyl-2-[4-(9H-fluoren-9-ylidene)piperidin-1-yl]-4-hydroxypentanamide] | 72.4 | 89.1 | 85.1 | 55 | 100 μM: 89% |  |  | 
15 | Cc1ccc(CNC(=O)C(CO)N(C)CCC=C2c3ccccc3CCc3ccccc32)cc1 (centres unmarked) [Compound 56e, 2-((3-(10,11-Dihydro-5H-dibenzo[a,d][7]annulen-5-ylidene)propyl)(methyl)amino)-3-hydroxy-N-(4-methylbenzyl)propanamide] | 11.2 | 28.8 | 18.6 | 20.4 |  |  |  | 
